Test results reported in patent US7138361B2, “Herbicidal heterocycles” (E. I. du Pont de Nemours and Company, priority 2000, dated 2006).

Key:
Format in all cases: in vivo
[1] = test system: velvetleaf (Abutilon theophrasti); assay: Test C preemergence
Description: (§1) Seeds of plant species selected from bermudagrass (Cynodon dactylon), Surinam grass (Brachiaria decumbens), cocklebur (Xanthium strumarium), corn (Zea mays), crabgrass (Digitaria sanguinalis), woolly cupgrass (Eriochloa villosa), giant foxtail (Setaria faberii), goosegrass (Eleusine indica), johnsongrass (Sorghum halepense), kochia (Kochia scoparia), lambsquarters (Chenopodium album), morningglory (Ipomoea hederacea), yellow nutsedge (Cyperus esculentus), pigweed (Amaranthus retroflexus), common ragweed (Ambrosia elatior), soybean (Glycine max) and velvetleaf (Abutilon theophrasti) were planted and treated preemergence with test chemicals formulated in a non-phytotoxic solvent mixture which included a surfactant.
(§2) At the same time, plants selected from these crop and weed species and also winter barley (Hordeum vulgare), blackgrass (Alopecurus myosuroides), canary grass (Phalaris minor), chickweed (Stellaria media), downy brome (Bromus tectorum), green foxtail (Setaria viridis), Italian ryegrass (Lolium multiflorum), wheat (Triticum aestivum), wild oat (Avena fatua) and windgrass (Apera spica-venti) were treated with postemergence applications of some of the test chemicals formulated in the same manner. Plants ranged in height from 2 to 18 cm (1- to 4-leaf stage) for postemergence treatments. Plant species in the flooded paddy test consisted of rice (Oryza saliva), smallflower flatsedge (Cyperus difformis), duck salad (Heteranthera limosa) and barnyardgrass (Echinochloa crus-galli) grown to the 2-leaf stage for testing. Treated plants and controls were maintained in a greenhouse for 12 to 14 days, after which time all species were compared to controls and visually evaluated. Plant response ratings, summarized in Table C, are based on a scale of 0 to 100 where 0 is no effect and 100 is complete control. A dash (-) response means no test result.

[2] = test system: common ragweed (Ambrosia elatior); assay: Test C preemergence
Description: as §1, §2

[3] = test system: morningglory (Ipomoea hederacea); assay: Test C preemergence
Description: as §1, §2

[4] = test system: giant foxtail (Setaria faberii); assay: Test C preemergence
Description: as §1, §2

[5] = test system: bermudagrass (Cynodon dactylon); assay: Test C preemergence
Description: as §1, §2

[6] = test system: crabgrass (Digitaria sanguinalis); assay: Test C preemergence
Description: as §1, §2

[7] = test system: cocklebur (Xanthium strumarium); assay: Test C preemergence
Description: as §1, §2

[8] = test system: goosegrass (Eleusine indica); assay: Test C preemergence
Description: as §1, §2

Sunflower = assay: Test C preemergence; settings: scale 0 to 100, 0 no effect, 100 complete control
Description: as §1, §2

[9] = test system: Surinam grass (Brachiaria decumbens); assay: Test C preemergence
Description: as §1, §2

[10] = test system: velvetleaf (Abutilon theophrasti); assay: Test B preemergence
Method in brief: (§3)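 Post-treatment, species sat 13–15 days under greenhouse conditions before visual scoring against controls, 0 (no effect) through 100 (complete control). Application preemergence to sown seeds or postemergence at 1- to 4-leaf stage, using a non-phytotoxic solvent/surfactant formulation.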

[11] = test system: giant foxtail (Setaria faberii); assay: Test B preemergence
Method in brief: as §3

[12] = test system: barnyardgrass (Echinochloa crus-galli); assay: Test B preemergence
Method in brief: as §3

corn (Zea mays) = assay: Test B preemergence
Method in brief: as §3

[13] = test system: crabgrass (Digitaria sanguinalis); assay: Test B preemergence
Method in brief: as §3

[14] = test system: cocklebur (Xanthium strumarium); assay: Test B preemergence
Method in brief: as §3

[15] = test system: lambsquarters (Chenopodium album); assay: Test B preemergence
Method in brief: as §3

[16] = test system: morning glory (Ipomoea hederacea); assay: Test B preemergence
Method in brief: as §3

rice (Oryza saliva) = assay: Test B preemergence
Method in brief: as §3

[17] = test system: pigweed (Amaranthus retroflexus); assay: Test B preemergence
Method in brief: as §3

[18] = test system: Surinam grass (Brachiaria decumbens); assay: Test B preemergence
Method in brief: as §3

[19] = Rate 62 g/ha, scale 0 to 100, 0 no effect, 100 complete control
[20] = preemergence, Rate 16 g/ha, scale 0 to 100
[21] = preemergence, Rate 31 g/ha, scale 0 to 100
[22] = preemergence, Rate 125 g/ha, scale 0 to 100, 0 no effect, 100 complete control
[23] = Preemergence, Rate 500 g/ha, scale 0 to 100, 0 no effect, 100 complete control
[24] = Rate 125 g/ha, scale 0 to 100, 0 no effect, 100 complete control
[25] = preemergence, Rate 250 g/ha, scale 0 to 100, 0 no effect, 100 complete control
[26] = preemergence, Rate 250 g/ha, visual evaluation after 12 to 14 days
[27] = preemergence, Rate 125 g/ha, scale of 0 to 100 where 0 is no effect and 100 is complete control, 13 to 15 days

CC(C)(C)c1ccn(C2CCN(c3cccc(Cl)c3)C2=O)n1 (stereo not drawn) [Compound 43]
Plant response rating, Velvetleaf [1, 19]: 0 | Plant response rating, Velvetleaf [1, 20]: 0 | Plant response rating, Velvetleaf [1, 21]: 0 | Plant response rating, Velvetleaf [1, 22]: 0 | Plant response rating, Ragweed, Common [2, 19]: 0 | Plant response rating, Ragweed, Common [2, 20]: 0 | Plant response rating, Ragweed, Common [2, 21]: 0 | Plant response rating, Ragweed, Common [2, 22]: 30 | Plant response rating, Morningglory [3, 19]: 0 | Plant response rating, Morningglory [3, 20]: 0 | Plant response rating, Morningglory [3, 21]: 0 | Plant response rating, Morningglory [3, 22]: 0 | Plant response rating, Foxtail, Giant [4, 19]: 0 | Plant response rating, Foxtail, Giant [4, 20]: 0 | Plant response rating, Foxtail, Giant [4, 21]: 0 | Plant response rating, Foxtail, Giant [4, 22]: 0 | Plant response rating, Bermudagrass [5, 19]: 50 | Plant response rating, Bermudagrass [5, 20]: 20 | Plant response rating, Bermudagrass [5, 21]: 40 | Plant response rating, Bermudagrass [5, 22]: 60 | Plant response rating, Crabgrass [6, 19]: 40 | Plant response rating, Crabgrass [6, 20]: 0 | Plant response rating, Crabgrass [6, 21]: 20 | Plant response rating, Crabgrass [6, 22]: 90 | Plant response rating, Cocklebur [7, 19]: 100 | Plant response rating, Cocklebur [7, 20]: 0 | Plant response rating, Cocklebur [7, 21]: 20 | Plant response rating, Cocklebur [7, 22]: 100 | Plant response rating, Goosegrass [8, 19]: 50 | Plant response rating, Goosegrass [8, 20]: 0 | Plant response rating, Goosegrass [8, 21]: 0 | Plant response rating, Goosegrass [8, 22]: 90 | Plant response rating, Sunflower (Sunflower; Rate 62 g/ha): 0 | Plant response rating, Surinam grass [9, 19]: 0 | Plant response rating, Surinam grass [9, 20]: 0 | Plant response rating, Surinam grass [9, 21]: 0 | Plant response rating, Surinam grass [9, 22]: 0 | Plant response rating, Velvetleaf [10, 23]: 0 | Plant response rating, Foxtail, Giant [11, 23]: 100 | Plant response rating, Foxtail, Giant [11, 22]: 0 | Plant response rating, Barnyardgrass [12, 23]: 100 | Plant response rating, Barnyardgrass [12, 22]: 60 | Plant response rating, Corn (corn (Zea mays); [23]): 0 | Plant response rating, Corn (corn (Zea mays); [22]): 0 | Plant response rating, Crabgrass [13, 23]: 90 | Plant response rating, Crabgrass [13, 22]: 0 | Plant response rating, Cocklebur [14, 23]: 0 | Plant response rating, Lambsquarters [15, 23]: 100 | Plant response rating, Lambsquarters [15, 22]: 100 | Plant response rating, Morningglory [16, 23]: 0 | Plant response rating, Rice (rice (Oryza saliva); [23]): 70 | Plant response rating, Pigweed [17, 23]: 100 | Plant response rating, Surinam grass [18, 23]: 20 | Plant response rating, Surinam grass [18, 22]: 0

CCC(CC)c1ccn(C2CCN(c3ccc(C)c(OC)c3)C2=O)n1 (stereo not drawn) [Compound 81]
Plant response rating, Velvetleaf [1, 24]: 30 | Plant response rating, Velvetleaf [1, 21]: 0 | Plant response rating, Velvetleaf [1, 25]: 80 | Plant response rating, Ragweed, Common [2, 24]: 100 | Plant response rating, Ragweed, Common [2, 21]: 30 | Plant response rating, Ragweed, Common [2, 25]: 100 | Plant response rating, Morningglory [3, 19]: 0 | Plant response rating, Morningglory [3, 24]: 20 | Plant response rating, Morningglory [3, 21]: 0 | Plant response rating, Morningglory [3, 25]: 20 | Plant response rating, Foxtail, Giant [4, 19]: 90 | Plant response rating, Foxtail, Giant [4, 24]: 100 | Plant response rating, Foxtail, Giant [4, 21]: 30 | Plant response rating (0 to 100), Foxtail, Giant [4, 26]: 100 | Plant response rating, Bermudagrass [5, 19]: 100 | Plant response rating, Bermudagrass [5, 24]: 100 | Plant response rating, Bermudagrass [5, 21]: 100 | Plant response rating (0 to 100 where 0 is no effect and 100 is complete control), Bermudagrass [5, 26]: 100 | Plant response rating, Crabgrass [6, 19]: 100 | Plant response rating, Crabgrass [6, 24]: 100 | Plant response rating, Crabgrass [6, 21]: 60 | Plant response rating (0 to 100), Crabgrass [6, 26]: 100 | Plant response rating, Cocklebur [7, 19]: 0 | Plant response rating, Cocklebur [7, 24]: 0 | Plant response rating, Cocklebur [7, 21]: 0 | Plant response rating (0 to 100), Cocklebur [7, 26]: 20 | Plant response rating, Goosegrass [8, 19]: 100 | Plant response rating, Goosegrass [8, 24]: 100 | Plant response rating, Goosegrass [8, 21]: 90 | Plant response rating (0 to 100), Goosegrass [8, 26]: 100 | Plant response rating, Sunflower (Sunflower; Rate 125 g/ha): 0 | Plant response rating, Surinam grass [9, 19]: 20 | Plant response rating, Surinam grass [9, 24]: 50 | Plant response rating, Surinam grass [9, 21]: 0 | Plant response rating (0 to 100), Surinam grass [9, 26]: 100 | Plant response rating, Velvetleaf [10, 23]: 80 | Plant response rating, Velvetleaf [10, 27]: 70 | Plant response rating, Foxtail, Giant [11, 23]: 100 | Plant response rating, Foxtail, Giant [11, 27]: 100 | Plant response rating, Barnyardgrass [12, 23]: 100 | Plant response rating, Barnyardgrass [12, 27]: 100 | Plant response rating, Corn (corn (Zea mays); [23]): 30 | Plant response rating, Corn (corn (Zea mays); [27]): 0 | Plant response rating, Crabgrass [13, 23]: 100 | Plant response rating, Crabgrass [13, 27]: 100 | Plant response rating, Cocklebur [14, 23]: 90 | Plant response rating, Cocklebur [14, 27]: 0 | Plant response rating, Lambsquarters [15, 23]: 100 | Plant response rating, Lambsquarters [15, 27]: 100 | Plant response rating, Morningglory [16, 23]: 100 | Plant response rating, Morningglory [16, 27]: 30 | Plant response rating, Rice (rice (Oryza saliva); [23]): 90 | Plant response rating, Rice (rice (Oryza saliva); [27]): 50 | Plant response rating, Pigweed [17, 23]: 100 | Plant response rating, Pigweed [17, 27]: 100 | Plant response rating, Surinam grass [18, 23]: 100 | Plant response rating, Surinam grass [18, 27]: 90
